In patent US6737383B1, “Herbicidal oxadiazolidines” (priority 1999, dated 2004):

What was measured:
cocklebur = experiment: Test B pre/postemergence cocklebur; type: in vivo, Xanthium strumarium
Procedure, shortened: (§1)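 Test chemicals in a non-phytotoxic solvent mixture with surfactant were sprayed preemergence onto planted seeds and postemergence onto plants 2 to 18 cm tall (1- to 4-leaf stage). After twelve to sixteen days in a greenhouse, injury was visually rated against untreated controls from 0 (no effect) to 10 (complete control).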

rape = experiment: Test B pre/postemergence rape; type: in vivo, Brassica napus
Procedure, shortened: as §1

sugar beet = experiment: Test B pre/postemergence sugar beet; type: in vivo, Beta vulgaris
Procedure, shortened: as §1

bamyardgrass = experiment: Test B flood test barnyardgrass; type: in vivo, Echinochloa crus-galli; details: for Plant response rating, Barnyardgrass (0 to 10 scale, 0 is no effect, 10 is complete control): Rate 62 g/ha; for Plant response rating, Barnyardgrass (0 to 10 scale, 0 is no effect, 10 is complete control) / Barnyardgrass plant response rating (0 to 10 scale, 0 is no effect, 10 is complete control): visual evaluation after twelve to sixteen days; for Barnyardgrass plant response rating (0 to 10 scale, 0 is no effect, 10 is complete control): Rate 125 g/ha, under heading Pre-emergence
Procedure, shortened: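 Each value is a visual injury score relative to controls, with 10 meaning complete control and 0 no effect. Evaluation took place twelve to sixteen days after the 2-leaf-stage plants were treated and kept in the greenhouse.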

[1] = Postemergence, Rate 62 g/ha, scale 0 to 10, 0 is no effect, 10 is complete control
[2] = Postemergence, Rate 125 g/ha, scale of 0 to 10 where 0 is no effect and 10 is complete control
[3] = Postemergence, Rate 250 g/ha, scale of 0 to 10, 0 is no effect, 10 is complete control
[4] = Postemergence, Rate 500 g/ha, scale of 0 to 10 where 0 is no effect and 10 is complete control
[5] = Preemergence, Rate 62 g/ha, scale 0 to 10 (0 no effect, 10 complete control)
[6] = Preemergence, Rate 125 g/ha, scale of 0 to 10 where 0 is no effect and 10 is complete control
[7] = Preemergence, Rate 250 g/ha, scale 0 to 10 (0 no effect, 10 complete control)
[8] = Preemergence, Rate 500 g/ha, scale of 0 to 10 where 0 is no effect and 10 is complete control
[9] = flood test species, Pre-emergence
[10] = Postemergence, Rate 125 g/ha, scale 0 to 10, 0 is no effect, 10 is complete control
[11] = Postemergence, Rate 250 g/ha, scale 0 to 10, 0 is no effect, 10 is complete control
[12] = Preemergence, Rate 250 g/ha, scale of 0 to 10 where 0 is no effect and 10 is complete control
[13] = Rate 62 g/ha, Postemergence, scale of 0 to 10 where 0 is no effect and 10 is complete control
[14] = Rate 500 g/ha, Postemergence, scale 0 to 10, 0 no effect, 10 complete control

Q: With COCCn1c(=O)on(C(=O)N(c2ccc(F)cc2)C(C)C)c1=O [Compound 627] as the compound, how does the “Plant response rating, Cocklebur” value (cocklebur; [1]) read?
A: 0

Q: And the “Plant response rating, Cocklebur” value (cocklebur; [2])?
A: 0

Q: What about the “Cocklebur plant response rating” value (cocklebur; [3]) of the same compound?
A: 0

Q: And the “Plant response rating, Cocklebur” value (cocklebur; [4])?
A: 3

Q: What about the “Cocklebur plant response rating” value (cocklebur; [5]) of the same compound?
A: 6

Q: And the “Cocklebur plant response rating” value (cocklebur; [6])?
A: 6

Q: What about the “Plant response rating, Cocklebur” value (cocklebur; [7]) of the same compound?
A: 6

Q: And the “Plant response rating, Cocklebur” value (cocklebur; [8])?
A: 7

Q: What about the “Plant response rating, Rape” value (rape; [1]) of the same compound?
A: 0

Q: And the “Plant response rating, Rape” value (rape; [2])?
A: 0

Q: And the “Rape plant response rating” value (rape; [3])?
A: 0

Q: What about the “Plant response rating, Rape” value (rape; [4]) of the same compound?
A: 5

Q: And the “Rape plant response rating” value (rape; [5])?
A: 1

Q: What about the “Rape plant response rating” value (rape; [6]) of the same compound?
A: 3

Q: What about the “Plant response rating, Rape” value (rape; [7]) of the same compound?
A: 9

Q: What about the “Plant response rating, Rape” value (rape; [8]) of the same compound?
A: 10

Q: And the “Plant response rating, Sugarbeets” value (sugar beet; [1])?
A: 0

Q: And the “Plant response rating, Sugarbeets” value (sugar beet; [2])?
A: 0

Q: What about the “Sugarbeets plant response rating” value (sugar beet; [3]) of the same compound?
A: 0

Q: What about the “Sugarbeets plant response rating” value (sugar beet; [5]) of the same compound?
A: 5

Q: And the “Sugarbeets plant response rating” value (sugar beet; [6])?
A: 4

Q: What about the “Plant response rating, Sugarbeets” value (sugar beet; [7]) of the same compound?
A: 8

Q: And the “Plant response rating, Sugarbeets” value (sugar beet; [8])?
A: 9

Q: And the “Plant response rating, Barnyardgrass (0 to 10 scale, 0 is no effect, 10 is complete control)” value (bamyardgrass; [9])?
A: 0

Q: What about the “Barnyardgrass plant response rating (0 to 10 scale, 0 is no effect, 10 is complete control)” value (bamyardgrass; flood test species) of the same compound?
A: 0

Q: What about the “Barnyardgrass plant response rating” value (bamyardgrass; Rate 250 g/ha, Pre-emergence (flood test species), scale 0 to 10, 0 is no effect, 10 is complete control) of the same compound?
A: 0

Q: And the “Barnyardgrass plant response rating” value (bamyardgrass; Rate 500 g/ha, Pre-emergence section of Table B, 0 to 10 scale (0 no effect, 10 complete control))?
A: 8

Q: With Cc1nsc(Cl)c1Cn1c(=O)on(C(=O)N(c2ccccc2)C(C)C)c1=O [Compound 374] as the compound, how does the “Plant response rating, Cocklebur” value (cocklebur; [10]) read?
A: 0

Q: What about the “Plant response rating, Cocklebur” value (cocklebur; [11]) of the same compound?
A: 0

Q: What about the “Plant response rating, Cocklebur” value (cocklebur; [5]) of the same compound?
A: 0

Q: What about the “Cocklebur plant response rating (0 to 10 scale)” value (cocklebur; Preemergence, Rate 125 g/ha) of the same compound?
A: 0

Q: And the “Cocklebur plant response rating” value (cocklebur; [12])?
A: 0

Q: What about the “Cocklebur plant response rating” value (cocklebur; [8]) of the same compound?
A: 0

Q: What about the “Cocklebur plant response rating” value (cocklebur; [13]) of the same compound?
A: 0

Q: And the “Plant response rating, Cocklebur” value (cocklebur; [14])?
A: 0

Q: And the “Plant response rating, Rape” value (rape; [10])?
A: 2

Q: What about the “Plant response rating, Rape” value (rape; [11]) of the same compound?
A: 2

Q: What about the “Plant response rating, Rape” value (rape; [5]) of the same compound?
A: 0

Q: And the “Rape plant response rating (0 to 10 scale)” value (rape; Preemergence, Rate 125 g/ha)?
A: 0

Q: What about the “Rape plant response rating” value (rape; [12]) of the same compound?
A: 2

Q: And the “Rape plant response rating” value (rape; [8])?
A: 7

Q: And the “Rape plant response rating” value (rape; [13])?
A: 0

Q: What about the “Plant response rating, Rape” value (rape; [14]) of the same compound?
A: 7

Q: What about the “Plant response rating, Sugarbeets” value (sugar beet; [10]) of the same compound?
A: 0

Q: What about the “Plant response rating, Sugarbeets” value (sugar beet; [11]) of the same compound?
A: 0

Q: And the “Plant response rating, Sugarbeets” value (sugar beet; [5])?
A: 0

Q: What about the “Sugarbeets plant response rating (0 to 10 scale)” value (sugar beet; Preemergence, Rate 125 g/ha) of the same compound?
A: 0

Q: And the “Sugarbeets plant response rating” value (sugar beet; [12])?
A: 0

Q: What about the “Sugarbeets plant response rating” value (sugar beet; [8]) of the same compound?
A: 4

Q: What about the “Sugarbeets plant response rating” value (sugar beet; [13]) of the same compound?
A: 0

Q: What about the “Plant response rating, Sugarbeets” value (sugar beet; [14]) of the same compound?
A: 4

Q: And the “Plant response rating, Barnyardgrass (0 to 10 scale, 0 is no effect, 10 is complete control)” value (bamyardgrass; [9])?
A: 0

Q: What about the “Barnyardgrass plant response rating (0 to 10 scale, 0 is no effect, 10 is complete control)” value (bamyardgrass; flood test species) of the same compound?
A: 0

Q: And the “Barnyardgrass plant response rating” value (bamyardgrass; Rate 250 g/ha, Pre-emergence, flood-test species, scale 0 to 10, 0 is no effect, 10 is complete control)?
A: 0

Q: And the “Barnyardgrass plant response rating” value (bamyardgrass; Rate 500 g/ha, Pre-emergence, flood test species, scale 0 to 10 (0 no effect, 10 complete control))?
A: 0
